Activity calls are given as the source filed them.
Legend:
[1] = biological target: Cyclin-dependent kinase 15 (Homo sapiens) (UniProt Q96Q40); conditions: Compound concentration 1000.0 nM
[2] = biological target: AP2-associated protein kinase 1 (Homo sapiens) (UniProt Q2M2I8); conditions: Compound concentration 1000.0 nM
[3] = biological target: T1, Bifunctional epoxide hydrolase 2 (Homo sapiens, UniProt P34913); experiment: Cellular assay
T1 sequence (P34913 whole entry): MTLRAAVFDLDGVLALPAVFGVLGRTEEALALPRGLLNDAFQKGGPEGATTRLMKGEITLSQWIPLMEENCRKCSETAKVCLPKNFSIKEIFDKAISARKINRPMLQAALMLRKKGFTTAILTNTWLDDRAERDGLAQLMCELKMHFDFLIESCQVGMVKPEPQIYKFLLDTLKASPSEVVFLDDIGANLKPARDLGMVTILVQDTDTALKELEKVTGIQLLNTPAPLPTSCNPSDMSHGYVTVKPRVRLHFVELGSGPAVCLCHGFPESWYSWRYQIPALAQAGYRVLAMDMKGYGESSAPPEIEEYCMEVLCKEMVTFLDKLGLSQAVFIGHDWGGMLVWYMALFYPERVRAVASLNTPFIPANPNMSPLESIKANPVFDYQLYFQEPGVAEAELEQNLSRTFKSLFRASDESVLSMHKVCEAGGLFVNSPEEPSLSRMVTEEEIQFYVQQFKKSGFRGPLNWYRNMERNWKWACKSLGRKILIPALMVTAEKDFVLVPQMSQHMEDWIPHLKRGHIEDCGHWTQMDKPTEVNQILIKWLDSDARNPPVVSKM

[4] = biological target: Serine/threonine-protein kinase VRK2 (Homo sapiens) (UniProt Q86Y07); conditions: Compound concentration 1000.0 nM
[5] = biological target: Opioid receptor (Rattus norvegicus) (UniProt P33533+P34975+P33535); experiment: OPIAT/NS Eurofins-Panlabs selectivity data (BI); type: protein assay; conditions: Compound concentration 10.0 uM
[6] = biological target: Serine/threonine-protein kinase PAK 6 (Homo sapiens) (UniProt Q9NQU5); conditions: Compound concentration 1000.0 nM
[7] = biological target: Serine/threonine-protein kinase PLK4 (Homo sapiens) (UniProt O00444); conditions: Compound concentration 1000.0 nM
[8] = biological target: Serine/threonine-protein kinase 25 (Homo sapiens) (UniProt O00506); conditions: Compound concentration 1000.0 nM
[9] = biological target: 5'-AMP-activated protein kinase catalytic subunit alpha-1 (Homo sapiens) (UniProt Q13131); conditions: Compound concentration 1000.0 nM
Sequence of 5'-AMP-activated protein kinase catalytic subunit alpha-1 (Homo sapiens) (Q13131 whole entry, looked up): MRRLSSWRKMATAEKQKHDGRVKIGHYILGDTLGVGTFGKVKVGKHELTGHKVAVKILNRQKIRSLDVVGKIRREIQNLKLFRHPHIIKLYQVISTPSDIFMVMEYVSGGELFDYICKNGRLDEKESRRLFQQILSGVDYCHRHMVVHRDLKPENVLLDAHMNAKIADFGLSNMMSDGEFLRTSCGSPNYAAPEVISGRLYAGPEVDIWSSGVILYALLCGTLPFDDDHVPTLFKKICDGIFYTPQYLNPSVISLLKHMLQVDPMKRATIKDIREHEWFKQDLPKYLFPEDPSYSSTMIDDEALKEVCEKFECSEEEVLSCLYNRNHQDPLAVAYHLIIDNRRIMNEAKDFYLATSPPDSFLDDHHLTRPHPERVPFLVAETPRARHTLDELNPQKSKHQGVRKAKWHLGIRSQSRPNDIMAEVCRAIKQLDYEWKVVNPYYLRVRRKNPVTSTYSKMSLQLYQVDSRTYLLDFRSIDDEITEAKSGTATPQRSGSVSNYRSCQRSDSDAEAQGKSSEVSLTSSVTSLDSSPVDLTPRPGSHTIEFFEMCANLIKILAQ

[10] = biological target: Interferon-induced, double-stranded RNA-activated protein kinase (Homo sapiens) (UniProt P19525); conditions: Compound concentration 1000.0 nM
[11] = biological target: Serine/threonine-protein kinase pim-1 (Homo sapiens) (UniProt P11309); conditions: Compound concentration 1000.0 nM
Sequence of Serine/threonine-protein kinase pim-1 (Homo sapiens) (P11309 whole entry, looked up, canonical isoform): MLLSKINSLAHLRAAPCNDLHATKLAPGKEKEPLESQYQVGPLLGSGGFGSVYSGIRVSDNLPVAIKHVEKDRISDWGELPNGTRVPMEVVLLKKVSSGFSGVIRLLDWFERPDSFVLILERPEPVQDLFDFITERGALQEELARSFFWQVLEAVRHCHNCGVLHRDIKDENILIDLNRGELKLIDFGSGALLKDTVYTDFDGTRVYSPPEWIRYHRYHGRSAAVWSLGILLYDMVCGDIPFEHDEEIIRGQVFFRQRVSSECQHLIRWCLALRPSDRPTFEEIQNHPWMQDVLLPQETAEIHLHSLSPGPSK

[12] = biological target: Casein kinase I isoform gamma-2 (Homo sapiens) (UniProt P78368); conditions: Compound concentration 1000.0 nM
[13] = biological target: Sodium-dependent serotonin transporter (Homo sapiens) (UniProt P31645); experiment: 5HTTRANS/HU Eurofins-Panlabs selectivity data (BI); conditions: Compound concentration 10.0 uM
[14] = biological target: Ribosomal protein S6 kinase alpha-2 (Homo sapiens) (UniProt Q15349); conditions: Compound concentration 1000.0 nM
[15] = biological target: Ribosomal protein S6 kinase alpha-4 (Homo sapiens) (UniProt O75676); conditions: Compound concentration 1000.0 nM
[16] = biological target: T2, 5-hydroxytryptamine receptor 3A (Homo sapiens) (UniProt P46098); experiment: 5HT3/HU Eurofins-Panlabs selectivity data (BI); conditions: Compound concentration 10.0 uM
T2 sequence (whole entry): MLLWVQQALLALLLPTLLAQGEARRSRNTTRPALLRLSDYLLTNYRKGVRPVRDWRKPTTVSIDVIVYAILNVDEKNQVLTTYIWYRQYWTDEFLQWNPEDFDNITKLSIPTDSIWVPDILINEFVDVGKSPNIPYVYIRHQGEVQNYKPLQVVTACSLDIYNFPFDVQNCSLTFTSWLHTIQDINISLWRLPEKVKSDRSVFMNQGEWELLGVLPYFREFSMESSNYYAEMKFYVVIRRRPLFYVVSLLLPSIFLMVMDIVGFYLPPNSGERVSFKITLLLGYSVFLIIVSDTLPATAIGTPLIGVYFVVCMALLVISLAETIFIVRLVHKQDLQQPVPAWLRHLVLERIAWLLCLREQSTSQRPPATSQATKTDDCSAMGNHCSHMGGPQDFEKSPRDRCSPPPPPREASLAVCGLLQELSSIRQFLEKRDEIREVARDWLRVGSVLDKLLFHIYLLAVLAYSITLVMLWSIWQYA

[17] = biological target: Protein kinase C eta type (Homo sapiens) (UniProt P24723); conditions: Compound concentration 1000.0 nM
Sequence of Protein kinase C eta type (Homo sapiens) (P24723 whole entry): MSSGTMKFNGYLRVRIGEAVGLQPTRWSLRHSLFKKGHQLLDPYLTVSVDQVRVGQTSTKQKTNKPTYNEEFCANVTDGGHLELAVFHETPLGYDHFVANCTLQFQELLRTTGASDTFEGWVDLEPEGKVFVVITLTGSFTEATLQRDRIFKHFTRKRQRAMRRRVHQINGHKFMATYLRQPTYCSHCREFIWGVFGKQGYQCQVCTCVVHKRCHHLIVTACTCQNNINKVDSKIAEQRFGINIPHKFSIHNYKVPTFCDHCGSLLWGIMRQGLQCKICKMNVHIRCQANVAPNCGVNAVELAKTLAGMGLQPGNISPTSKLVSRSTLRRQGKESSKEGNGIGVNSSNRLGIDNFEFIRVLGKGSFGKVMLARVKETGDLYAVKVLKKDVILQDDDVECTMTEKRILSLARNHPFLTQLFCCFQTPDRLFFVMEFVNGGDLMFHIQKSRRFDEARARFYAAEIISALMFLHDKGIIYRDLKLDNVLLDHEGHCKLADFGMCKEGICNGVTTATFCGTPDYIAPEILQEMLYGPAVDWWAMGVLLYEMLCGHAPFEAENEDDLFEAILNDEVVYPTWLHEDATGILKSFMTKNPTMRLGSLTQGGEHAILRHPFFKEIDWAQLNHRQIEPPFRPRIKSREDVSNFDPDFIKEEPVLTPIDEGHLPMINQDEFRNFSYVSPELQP

[18] = biological target: Serine/threonine-protein kinase Sgk1 (Homo sapiens) (UniProt O00141); conditions: Compound concentration 1000.0 nM
[19] = biological target: Cytoplasmic tyrosine-protein kinase BMX (Homo sapiens) (UniProt P51813); conditions: Compound concentration 1000.0 nM
[20] = biological target: Ribosomal protein S6 kinase alpha-3 (Homo sapiens) (UniProt P51812); conditions: Compound concentration 1000.0 nM
Sequence of Ribosomal protein S6 kinase alpha-3 (Homo sapiens) (P51812 whole entry): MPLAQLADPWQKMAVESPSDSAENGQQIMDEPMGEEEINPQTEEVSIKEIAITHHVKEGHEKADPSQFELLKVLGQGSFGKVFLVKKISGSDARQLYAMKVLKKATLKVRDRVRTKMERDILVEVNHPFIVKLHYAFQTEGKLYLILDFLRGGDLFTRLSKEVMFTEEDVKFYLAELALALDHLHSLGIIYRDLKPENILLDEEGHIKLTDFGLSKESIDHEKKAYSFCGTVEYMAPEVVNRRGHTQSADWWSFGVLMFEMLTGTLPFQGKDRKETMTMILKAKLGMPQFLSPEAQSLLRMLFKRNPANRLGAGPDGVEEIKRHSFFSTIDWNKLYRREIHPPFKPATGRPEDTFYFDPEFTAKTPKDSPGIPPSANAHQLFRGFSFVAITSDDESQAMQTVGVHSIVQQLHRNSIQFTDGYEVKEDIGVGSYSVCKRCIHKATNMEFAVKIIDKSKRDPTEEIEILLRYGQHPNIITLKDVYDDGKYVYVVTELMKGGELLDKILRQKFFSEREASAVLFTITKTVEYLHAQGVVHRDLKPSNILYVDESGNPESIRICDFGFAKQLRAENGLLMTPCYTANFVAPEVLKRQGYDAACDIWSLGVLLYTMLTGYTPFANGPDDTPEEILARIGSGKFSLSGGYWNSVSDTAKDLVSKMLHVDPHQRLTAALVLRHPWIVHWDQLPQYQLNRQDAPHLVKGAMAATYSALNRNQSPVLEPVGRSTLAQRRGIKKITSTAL

[21] = biological target: Insulin-like growth factor 1 receptor (Homo sapiens) (UniProt P08069); conditions: Compound concentration 1000.0 nM
[22] = test system: Phosphatidylinositol 4,5-bisphosphate 3-kinase catalytic subunit alpha isoform (Homo sapiens), P42336 [Q546K]; conditions: Compound concentration 1000.0 nM
Sequence of Phosphatidylinositol 4,5-bisphosphate 3-kinase catalytic subunit alpha isoform (Homo sapiens), P42336 [Q546K] (P42336 whole entry Q546K, canonical isoform): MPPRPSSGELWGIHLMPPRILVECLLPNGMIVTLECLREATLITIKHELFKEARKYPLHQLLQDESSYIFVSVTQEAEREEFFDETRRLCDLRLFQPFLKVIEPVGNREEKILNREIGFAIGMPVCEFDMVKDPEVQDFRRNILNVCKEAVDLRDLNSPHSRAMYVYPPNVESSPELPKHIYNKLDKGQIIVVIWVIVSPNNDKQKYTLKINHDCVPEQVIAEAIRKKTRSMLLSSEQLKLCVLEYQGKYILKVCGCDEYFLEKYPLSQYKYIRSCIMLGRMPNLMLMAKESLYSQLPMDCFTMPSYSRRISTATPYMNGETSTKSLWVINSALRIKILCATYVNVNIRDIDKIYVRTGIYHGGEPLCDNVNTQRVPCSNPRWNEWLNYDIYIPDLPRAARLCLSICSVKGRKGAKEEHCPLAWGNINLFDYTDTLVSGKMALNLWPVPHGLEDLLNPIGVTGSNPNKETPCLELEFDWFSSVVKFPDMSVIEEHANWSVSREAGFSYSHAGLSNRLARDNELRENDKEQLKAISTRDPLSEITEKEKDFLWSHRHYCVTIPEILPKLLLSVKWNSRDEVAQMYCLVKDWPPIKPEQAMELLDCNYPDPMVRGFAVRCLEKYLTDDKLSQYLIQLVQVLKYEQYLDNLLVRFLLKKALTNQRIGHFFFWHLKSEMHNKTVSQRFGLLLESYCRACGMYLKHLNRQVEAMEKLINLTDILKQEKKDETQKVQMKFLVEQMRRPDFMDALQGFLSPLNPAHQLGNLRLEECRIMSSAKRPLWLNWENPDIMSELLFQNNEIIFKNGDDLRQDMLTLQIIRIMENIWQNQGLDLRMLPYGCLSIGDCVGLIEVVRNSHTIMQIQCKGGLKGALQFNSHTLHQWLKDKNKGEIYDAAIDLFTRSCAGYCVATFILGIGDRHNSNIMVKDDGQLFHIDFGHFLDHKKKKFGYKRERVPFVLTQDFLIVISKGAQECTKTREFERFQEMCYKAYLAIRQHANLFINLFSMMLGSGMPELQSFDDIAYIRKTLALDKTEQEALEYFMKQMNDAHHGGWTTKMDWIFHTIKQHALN

[23] = biological target: Endothelin-1 receptor (Homo sapiens) (UniProt P25101); experiment: ETA/HU Eurofins-Panlabs selectivity data (BI); conditions: Compound concentration 10.0 uM
[24] = test system: Epidermal growth factor receptor (Homo sapiens), P00533 [UNDEFINED MUTATION]; conditions: Compound concentration 1000.0 nM
[25] = biological target: Aurora kinase A (Homo sapiens) (UniProt O14965); conditions: Compound concentration 1000.0 nM
[26] = biological target: Ribosomal protein S6 kinase alpha-5 (Homo sapiens) (UniProt O75582); conditions: Compound concentration 1000.0 nM
[27] = biological target: Serine/threonine-protein kinase SIK3 (Homo sapiens) (UniProt Q9Y2K2); conditions: Compound concentration 1000.0 nM
[28] = biological target: Serine/threonine-protein kinase MRCK gamma (Homo sapiens) (UniProt Q6DT37); conditions: Compound concentration 1000.0 nM
[29] = biological target: Protein kinase C iota type (Homo sapiens) (UniProt P41743); conditions: Compound concentration 1000.0 nM
[30] = biological target: Voltage-dependent L-type calcium channel subunit alpha-1C (diltiazem site) (Rattus norvegicus, UniProt P22002); experiment: CA+/DILSI/RA Eurofins-Panlabs selectivity data (BI); conditions: compound concentration 10 uM, read-out: % Ctrl
[31] = biological target: Serine/threonine-protein kinase N2 (Homo sapiens) (UniProt Q16513); conditions: Compound concentration 1000.0 nM

Sequence of AP2-associated protein kinase 1 (Homo sapiens) (Q2M2I8 whole entry, looked up): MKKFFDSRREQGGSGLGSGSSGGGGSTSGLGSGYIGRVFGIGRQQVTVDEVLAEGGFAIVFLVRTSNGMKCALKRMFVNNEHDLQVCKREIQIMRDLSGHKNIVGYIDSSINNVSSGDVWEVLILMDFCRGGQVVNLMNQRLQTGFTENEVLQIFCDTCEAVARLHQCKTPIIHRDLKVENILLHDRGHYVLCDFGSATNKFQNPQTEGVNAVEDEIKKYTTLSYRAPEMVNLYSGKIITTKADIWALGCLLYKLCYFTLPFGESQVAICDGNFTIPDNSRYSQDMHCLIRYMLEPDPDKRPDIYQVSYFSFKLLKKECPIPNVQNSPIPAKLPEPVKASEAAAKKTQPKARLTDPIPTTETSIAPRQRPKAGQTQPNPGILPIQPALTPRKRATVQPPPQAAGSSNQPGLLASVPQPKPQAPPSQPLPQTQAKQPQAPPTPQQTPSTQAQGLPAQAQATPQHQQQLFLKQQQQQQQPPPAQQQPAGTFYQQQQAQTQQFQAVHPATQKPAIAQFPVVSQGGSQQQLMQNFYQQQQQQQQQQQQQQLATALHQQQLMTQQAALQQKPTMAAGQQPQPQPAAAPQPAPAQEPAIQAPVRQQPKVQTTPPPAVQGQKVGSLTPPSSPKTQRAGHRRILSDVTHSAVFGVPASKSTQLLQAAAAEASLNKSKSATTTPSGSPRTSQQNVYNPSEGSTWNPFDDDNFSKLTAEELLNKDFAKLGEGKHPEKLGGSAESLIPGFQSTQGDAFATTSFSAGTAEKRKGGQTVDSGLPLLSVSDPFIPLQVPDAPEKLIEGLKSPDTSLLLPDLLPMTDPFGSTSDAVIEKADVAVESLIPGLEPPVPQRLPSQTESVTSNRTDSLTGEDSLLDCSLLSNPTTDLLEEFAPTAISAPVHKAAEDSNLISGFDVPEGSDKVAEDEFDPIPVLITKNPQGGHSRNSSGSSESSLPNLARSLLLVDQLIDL
Sequence of Cyclin-dependent kinase 15 (Homo sapiens) (Q96Q40 whole entry): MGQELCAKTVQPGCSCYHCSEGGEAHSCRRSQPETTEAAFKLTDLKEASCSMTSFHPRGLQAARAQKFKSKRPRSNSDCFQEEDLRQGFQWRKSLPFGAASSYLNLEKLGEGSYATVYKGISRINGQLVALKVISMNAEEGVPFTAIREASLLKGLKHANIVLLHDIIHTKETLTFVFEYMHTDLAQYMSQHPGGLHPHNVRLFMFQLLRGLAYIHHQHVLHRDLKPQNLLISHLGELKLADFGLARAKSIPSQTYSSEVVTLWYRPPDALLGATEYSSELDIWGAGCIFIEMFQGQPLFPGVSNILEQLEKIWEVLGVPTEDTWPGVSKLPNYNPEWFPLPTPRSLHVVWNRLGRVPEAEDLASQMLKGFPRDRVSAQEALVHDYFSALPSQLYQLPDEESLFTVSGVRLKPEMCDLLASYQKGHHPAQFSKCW

CCOCCn1cc(C(=O)Nc2ccc(-n3nc(-c4cccnc4)cc3C(F)(F)F)cn2)ccc1=O [BI 1935]
95% (not active): activity at 10 µM [30]
active: IC50 [3] < 1 nM
inactive: residual activity [1] 100% | residual activity [2] 100% | residual activity [4] 97% | residual activity [5] 99% | residual activity [6] 100% | residual activity [7] 100% | residual activity [8] 95% | residual activity [9] 100% | residual activity [10] 100% | residual activity [11] 100% | residual activity [12] 100% | residual activity [13] 100% | residual activity [14] 84% | residual activity [15] 100% | residual activity [16] 117% | residual activity [17] 100% | residual activity [18] 83% | residual activity [19] 84% | residual activity [20] 87% | residual activity [21] 96% | residual activity [22] 95% | residual activity [23] 97% | residual activity [24] 92% | residual activity [25] 85% | residual activity [26] 63% | residual activity [27] 92% | residual activity [28] 91% | residual activity [29] 73% | residual activity [31] 100%
